Assay results reported in paper PMC12241633, “Irinotecan alleviates chemoresistance to anthracyclines through the inhibition of AARS1-mediated BLM lactylation and homologous recombination repair” (Signal Transduction and Targeted Therapy, 2025).

Columns and labels:
Assay in all cases: SPR (Biacore T200), multicycle kinetics, global […] Langmuir fit
Type in all cases: binding
[1] = target: T1, BLM (Homo sapiens, UniProt P54132)
T1 construct: recombinant, pET28a-sumo in E. coli BL21(DE3); amine-coupled to CM5 chip
T1 sequence (P54132 whole entry): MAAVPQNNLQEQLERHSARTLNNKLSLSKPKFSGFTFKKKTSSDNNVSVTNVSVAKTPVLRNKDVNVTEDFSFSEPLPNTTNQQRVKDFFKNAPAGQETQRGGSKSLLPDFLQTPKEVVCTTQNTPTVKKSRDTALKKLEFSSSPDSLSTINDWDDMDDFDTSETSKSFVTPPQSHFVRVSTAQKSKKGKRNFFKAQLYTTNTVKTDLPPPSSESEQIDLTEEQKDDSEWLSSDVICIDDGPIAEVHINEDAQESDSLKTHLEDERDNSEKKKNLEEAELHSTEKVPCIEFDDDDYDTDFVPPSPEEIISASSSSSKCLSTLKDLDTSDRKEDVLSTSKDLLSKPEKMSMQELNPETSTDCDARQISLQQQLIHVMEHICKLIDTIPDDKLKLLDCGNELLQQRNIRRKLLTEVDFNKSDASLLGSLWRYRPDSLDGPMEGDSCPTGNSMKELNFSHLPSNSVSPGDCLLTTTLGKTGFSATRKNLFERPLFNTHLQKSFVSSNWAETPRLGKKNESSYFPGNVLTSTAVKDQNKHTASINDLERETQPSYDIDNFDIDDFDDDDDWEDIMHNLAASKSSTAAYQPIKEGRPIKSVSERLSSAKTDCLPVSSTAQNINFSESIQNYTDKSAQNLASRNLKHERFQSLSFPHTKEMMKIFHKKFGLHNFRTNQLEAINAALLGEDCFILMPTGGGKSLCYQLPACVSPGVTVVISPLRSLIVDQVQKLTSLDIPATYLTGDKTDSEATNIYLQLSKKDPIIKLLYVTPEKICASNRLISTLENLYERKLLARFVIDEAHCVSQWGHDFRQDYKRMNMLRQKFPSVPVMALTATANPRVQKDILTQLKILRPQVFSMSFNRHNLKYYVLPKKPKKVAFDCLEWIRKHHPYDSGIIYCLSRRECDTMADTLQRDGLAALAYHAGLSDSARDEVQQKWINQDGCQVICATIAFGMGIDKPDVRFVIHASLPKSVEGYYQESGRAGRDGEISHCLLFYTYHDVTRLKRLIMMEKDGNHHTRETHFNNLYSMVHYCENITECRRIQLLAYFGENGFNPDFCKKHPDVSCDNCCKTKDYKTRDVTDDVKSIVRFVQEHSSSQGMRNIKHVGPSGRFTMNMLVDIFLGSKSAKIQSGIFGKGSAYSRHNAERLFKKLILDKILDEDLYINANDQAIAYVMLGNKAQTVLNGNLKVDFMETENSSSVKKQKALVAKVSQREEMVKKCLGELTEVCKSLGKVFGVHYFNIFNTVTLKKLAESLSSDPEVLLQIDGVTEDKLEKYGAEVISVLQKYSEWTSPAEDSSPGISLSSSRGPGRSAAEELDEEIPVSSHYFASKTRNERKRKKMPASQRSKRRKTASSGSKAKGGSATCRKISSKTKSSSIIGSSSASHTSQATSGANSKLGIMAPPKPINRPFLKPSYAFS

[2] = target: T2, BLM (Homo sapiens, UniProt P54132, K31R)
T2 construct: recombinant, pET28a-sumo in E. coli BL21(DE3); amine-coupled to CM5 chip
T2 sequence (P54132 whole entry K31R): as the sequence (P54132 whole entry) above, with K31R counted along it

[3] = target: T3, BLM (Homo sapiens, UniProt P54132, K38R)
T3 construct: recombinant, pET28a-sumo in E. coli BL21(DE3); amine-coupled to CM5 chip
T3 sequence (P54132 whole entry K38R): as the sequence (P54132 whole entry) above, with K38R counted along it

CCc1c2c(nc3ccc(OC(=O)N4CCC(N5CCCCC5)CC4)cc13)-c1cc3c(c(=O)n1C2)COC(=O)[C@]3(O)CC [irinotecan]
Kd [1]: 251 nM | Kd [2]: 776 nM | Kd [3]: 911 nM
